Assay [1] concerns SGC-7901 gastric cancer cells. In words: Growth inhibition of cancer cell lines (MTS / WST assay), SGC-7901. Type of assay: cell-based. The settings on record: Homo sapiens, SGC-7901, 72 h; for IC90: read-out: SGC GI90. The method, then: (§1) The novel compounds of the present invention were tested for their ability to inhibit growth of various cancer cell lines using in vitro growth inhibition assays described below.
(§2) Cells were seeded in 96-well culture plates (200 microliters/well at different seeding concentrations depending on cell type) and incubated overnight at 37 degrees Celsius in 5% CO2. After adding compound dilutions to the cells (DMSO concentration kept below 0.5%), the cells were incubated at 37 degrees Celsius in 5% CO2 for 72 hours. The effects on proliferation were determined by addition of MTS reagent (Promega) according to the manufacturer's instruction, followed by incubation for 2 hours at 37 degrees Celsius in 5% CO2, and finally recording the absorbance at 490 nm using an ELISA plate reader.
(§3) Similar to MTS assay except that the developer is the CCK-8 reagent (Dojindo) and the plate reader is set to 450 nm absorbance.
(§4) GI50 and GI90 values against SGC-7901 gastric cancer cells and SMMC-7721 liver cancer cells for specific representative compounds can be found in Table 19.

For assay [2], the system named is SMMC-7721 liver cancer cells. The assay can be described thus: Growth inhibition of cancer cell lines (MTS / WST assay), SMMC-7721. Format: cell-based. Particulars: Homo sapiens, SMMC-7721, 72 h; for IC90: read-out: SMMC GI90. The method, then: as §1, §2, §3, §4
Assay [3] deals with histone deacetylase (HeLa nuclear extract). The assay can be described thus: HeLa extract HDAC fluorometric assay. Format: biochemical. Particulars: compound at 30 micromolar; relative to SNDX-275. The method, then: Novel compounds were tested for their ability to inhibit histone deacetylase using an in vitro deacetylation assay. The enzyme source for this assay was HeLa nuclear extract. The substrate consisted of a commercial product containing an acetylated lysine side chain (both HeLa extract and substrate are available commercially from BIOMOL Research Laboratories, Inc., Plymouth Meeting, Pa.). After deacetylation of the substrate by incubation with HeLa nuclear extract, subsequent exposure to a developing reagent produces a fluorophore that is directly proportional to the level of deacetylation. Using the substrate concentration at the Km for the HeLa nuclear extract, the deacetylation assay was performed in the presence of novel compounds at 30 micromolar and the percent enzyme inhibition relative to a known reference HDAC inhibitor (SNDX-275) was determined. […] Inhibitory activity for specific representative compounds can be found in Table 19.

`Cc1ccc(NC(=O)C2CN(C)CC2c2ccc(/C=C/C(=O)Nc3ccccc3N)cc2)cc1` (stereo not shown) [Example 5-19]: in assay [1], halving of growth (GI50) required 490 nM and the IC90 turned out to be 1790 nM. Besides, in assay [2], it took 670 nM to inhibit growth by half (GI50) and the IC90 stood at 1750 nM. Besides, in assay [3], the “HD RP30 (relative inhibitory potency compared with SNDX-275)” value is on record as 1.63.
For `CN1CC(C(=O)Nc2ccc(F)cc2)C(c2ccc(/C=C/C(=O)Nc3ccccc3N)cc2)C1` (racemic) [Example 5, rac-(trans-3,4)-4-{4-[2-(2-Amino-phenylcarbamoyl)-vinyl]-phenyl}-1-methyl-pyrrolidine-3-carboxylic acid (4-fluoro-phenyl)-amide], in that order: 390 nM, 1700 nM, 650 nM, 1950 nM and 1.61.
Turning to `CC(C)(C)N1CC(C(=O)Nc2ccc(F)cc2)C(c2ccc(/C=C/C(=O)Nc3ccccc3N)cc2)C1` (stereo not shown) [Example 36-5], in assay [1], the GI50 worked out at 310 nM and the IC90 came to 1080 nM. In assay [2], the GI50 is 650 nM and the IC90 stood at 1840 nM. Further, in assay [3], the “HD RP30 (relative inhibitory potency compared with SNDX-275)” value is 1.70.
For the compound `CN1CC(C(=O)Nc2ccc(F)c(Cl)c2)C(c2ccc(/C=C/C(=O)Nc3ccccc3N)cc2)C1` (stereo not shown) [Example 5-30], the GI50 is 340 nM in assay [1] and 710 nM in assay [2]. The results for the IC90 in assay [1] and in assay [2] were 1560 nM and 2340 nM, respectively. Besides, the “HD RP30 (relative inhibitory potency compared with SNDX-275)” value in assay [3] turned out to be 1.97.
For `CN1C[C@@H](C(=O)Nc2ccc(Cl)cc2)[C@H](c2ccc(/C=C/C(=O)Nc3ccccc3N)cc2)C1` [Example 5-2], in that order: 380 nM, 660 nM, 1130 nM, 1980 nM and 1.73.

Source of the values: patent US7977372B2, “Ortho aminoamides for the treatment of cancer” (Hoffmann-La Roche Inc., priority 2009, dated 2011).
